Experimental data as given in patent publication US20240342216A1, “METHODS OF TREATING CANCER” (Therapeutics By Design, LLC, priority 2021, published 2024).
“Also recorded” adds a separate entry of the source.

B1: BMP-7: bone morphogenetic protein-7, member of the transforming growth factor-beta superfamily (protein, UniProt P18075 293-431, looked up)
Bone morphogenetic protein 7: STGSKQRSQNRSKTPKNQEALRMANVAENSSSDQRQACKKHELYVSFRDLGWQDWIIAPEGYAAYYCEGECAFPLNSYMNATNHAIVQTLVHFINPETVPKPCCAPTQLNAISVLYFDDSSNVILKKYRNMVVRACGCH

What was measured:
[1] = test system: bulk tumor cell growth from prostate cancer; details: by activating SMAD 1/5/8 signaling; Bosukonda et al. 2009; cited from earlier work
[2] = test system: human breast cancer stem cells; assay: FACS quantification of CD44+ and E-cadherin+ cells; format: cell-based; details: for percent loss of CD44+ cells / percent gain in E-cadherin+ cells: non-adherent culture 8 days, vs untreated; for change in CD44+ cells (stem cell phenotype), in words / change in E-Cadherin+ cells (epithelial phenotype), in words: vs untreated control
Method: Untreated cells were incubated with APC labeled mouse anti-human antibody to CD44 antibody and FITC labeled rat anti-human E-Cadherin antibody. Cells were gated to exclude events in water and events due to cell death and debris. Cells were then gated to identify CD44+ and E-Cadherin+ populations based on corresponding fluorescence activity and labeled R7 and R11 respectively. […] Untreated cells were incubated with corresponding isotype antibodies, APC labeled mouse IgG1 and FITC labeled mouse IgG1. Cells were gated to exclude events in water and events due to cell death and debris.
(§1) Cells were plated and incubated for 24 hours to form tumorspheres. On day 2, cells were treated with 300 μM P123, followed by subsequent treatments on days 3, 5, and 8. Cells were then incubated with APC labeled mouse anti-human CD44 antibody and FITC labeled rat anti-human E-Cadherin antibody. Cells were gated to exclude events in water and events due to cell death and debris. Cells were then gated to identify CD44+ and E-Cadherin+ populations based on corresponding fluorescence activity and labeled R7 and R11 respectively. […] Cells were treated with P123 as described in (A). Cells were then incubated with corresponding isotype antibodies, APC labeled mouse IgG1 and FITC labeled mouse IgG1. Cells were gated to exclude events in water and events due to cell death and debris.
as §1, with “BMP-7 at 430 ng/ml with” for “300 μM P123, followed by”, “treatments at 362 ng/ml” for “treatments”, “day” for “days”, “3, 314 ng/ml on day” for “3,”, “277 ng/ml on day 8 (media was added at 10% volume resulting in decreased concentrations).” for “8.”, “BMP-7” for “P123”
Differentiation of chemo-resistant cancer stem cells, specifically a loss of its stem cell phenotype and self-renewal ability, could be a viable approach to the treatment of tumor recurrence and metastasis (Chirasani S R, Sternjak A, Wend P, et al. Bone morphogenetic protein-7 release from endogenous neural precursor cells suppresses the tumourigenicity of stem-like glioblastoma cells. Brain 2010, 133:1961-1972). Although this approach may or may not directly kill the cancer cells, it could make CSCs more responsive to conventional chemotherapies. Therefore, Peptide 123 and BMP-7 were examined to determine if they affected differentiation of human breast cancer stem cells. Sensitive flow cytometry method (Gupta V et al., Methods Mol Biol. 2011, 716: 179-191) to quantify CD44+, indicating stem cell phenotype, and E-cadherin+, indicating epithelial phenotype cells, after treatment with or without P123 (SEQ ID NO: 1) and BMP-7. Human breast cancer stem cells were grown in non-adherent cell suspension in serum-free medium for 8 Days. […] Importantly, the percent loss of CD44+ cells after treatment with the P123, 50%, was greater than that after treatment with BMP-7, 19% (FIGS. 4 and 5). Furthermore, a gain in E-cadherin+ cells was observed, which was proportional to the loss of CD44+ cells (FIGS. 4-6). Similarly, the percent gain in E-cadherin+ cells after treatment with P123, 50%, was greater than that after treatment with BMP-7, 19%, (FIG. 7).

[3] = test system: human breast cancer stem cells; assay: mammosphere (tumorsphere) formation assay, self-renewal in vitro; format: cell-based; details: for inhibition of mammosphere / tumorsphere formation: non-adherent culture, serum-free stem cell medium, 5 to 7 days
Method: Isolated human breast cancer stem cells treated with BMP-7 (500 ng/ml) for 7 days in non-adherent culture.
To investigate Peptide 123 (SEQ ID NO: 1) and BMP-7 effects on cancer stem cell function, their ability to influence self-renewal in vitro by using the mammosphere assay was examined. The mammosphere assay was developed as a method to propagate mammary epithelial stem cells (MaSC) in vitro by Dontu et al. (Genes Dev 17: 1253-1270 (2003)).
A procedure as described in manufacturer's manual (ProMab, California) was followed to grow cancer stem cells into mammospheres. For mammosphere culture, isolated human breast cancer stem cells were seeded in six well ultralow adherence plates (Corning Inc., Corning, NY, USA) and grown as non-adherent cell suspensions in serum-free stem cell culture medium (ProMab, California). Primary and secondary mammosphere formation was achieved by using weekly trypsinization and dissociation, followed by reseeding in ultralow adherence six well plates.

Molecule	inhibition of bulk tumor cell growth from prostate cancer [1]	percent loss of CD44+ cells ([2]; 300 uM, treated days 2, 3, 5, 8)	percent gain in E-cadherin+ cells ([2]; 300 uM)	change in CD44+ cells (stem cell phenotype), in words ([2]; 300 uM, listed as P123)	change in E-Cadherin+ cells (epithelial phenotype), in words ([2]; 300 uM, listed as P123)	inhibition of mammosphere / tumorsphere formation ([3]; 300 μM)	inhibition of mammosphere / tumorsphere formation ([3]; 300 μM, listed as P123)	percent gain in E-cadherin+ cells ([2]; 314-430 ng/ml)	percent loss of CD44+ cells ([2]; 314-430 ng/ml)	change in CD44+ cells (stem cell phenotype), in words ([2]; 314-430 ng/ml)	change in E-Cadherin+ cells (epithelial phenotype), in words ([2]; 314-430 ng/ml)	mammosphere formation after withdrawal of treatment ([3]; 500 ng/ml for 7 days, then 7 days with no treatment)	inhibition of mammosphere / tumorsphere formation ([3]; 500 ng/ml)
CYFDDSSNVLCKKYRS [Peptide 123, TDFRP, a peptide agonist of BMP signaling]	capable of inhibiting bulk tumor cell growth from prostate cancer	50%	50%	marked decline in CD44+ cells; also recorded: marked decrease in CD44+ cells	marked increase in E-Cadherin+ cells; also recorded: majority of P123 treated cells were E-Cadherin+	profound inhibition of tumorsphere formation	profound inhibition of mammosphere formation						
B1								19%	19%	marked decline in CD44+ cells; also recorded: a decrease in CD44+ cells	an increase in E-Cadherin cells; also recorded: an increase E-Cadherin+ with a large portion of CD44+ remaining	regained the ability to form tumorspheres; also recorded: significant increase in Mammosphere formation	inhibited tumorsphere formation; also recorded: moderate inhibition of mammosphere formation
